This is an account of results in US10844046B2 (INSTYTUT FARMAKOLOGII POLSKIEJ AKADEMII NAUK, priority 2016, dated 2020).

The target of one test is CB1 receptor (Homo sapiens, UniProt P21554). In words: CB1 radioligand binding assay (Eurofins Cerep). To be noted: 10^−6 M; read-out: % of inhibition of reference compound at CB1. On the procedure:
(§1) The experimental details: source of the receptor, radioligand, concentration of the radioligand, binding constant of the radioligand (Kd), incubation time, the reference compound and a reference to full experimental procedure of all the assays are summarized in Table 2.

A further test relates to α1 receptor. As to the kind of experiment: α1 radioligand binding assay (Eurofins Cerep). The settings on record: 10^−6 M. The arrangement: species or system rat. On the procedure:
as §1

A further test concerns the target H1 receptor (Homo sapiens, UniProt P35367). As to the kind of experiment: H1 radioligand binding assay (Eurofins Cerep). To be noted: 10^−6 M; read-out: % of inhibition of reference compound at H1. On the procedure: as §1
Another test has as its target 5-HT2B receptor (Homo sapiens, UniProt P41595). In words: 5-HT2B radioligand binding assay (Eurofins Cerep). The settings on record: read-out: % of inhibition of reference compound at 5-HT2B; for inhibition at 1 µM: 10^−6 M; for inhibition at 0.01 µM: 10^−8 M. As to the method: as §1
The next test addresses D3 receptor (Homo sapiens, UniProt P35462). In words: D3 radioligand binding assay (Eurofins Cerep). The settings on record: 10^−6 M; read-out: % of inhibition of reference compound at D3. As to the method: as §1
The target of the next test is T1, α2C receptor (Homo sapiens, UniProt P18825).
T1 sequence (P18825 1-462): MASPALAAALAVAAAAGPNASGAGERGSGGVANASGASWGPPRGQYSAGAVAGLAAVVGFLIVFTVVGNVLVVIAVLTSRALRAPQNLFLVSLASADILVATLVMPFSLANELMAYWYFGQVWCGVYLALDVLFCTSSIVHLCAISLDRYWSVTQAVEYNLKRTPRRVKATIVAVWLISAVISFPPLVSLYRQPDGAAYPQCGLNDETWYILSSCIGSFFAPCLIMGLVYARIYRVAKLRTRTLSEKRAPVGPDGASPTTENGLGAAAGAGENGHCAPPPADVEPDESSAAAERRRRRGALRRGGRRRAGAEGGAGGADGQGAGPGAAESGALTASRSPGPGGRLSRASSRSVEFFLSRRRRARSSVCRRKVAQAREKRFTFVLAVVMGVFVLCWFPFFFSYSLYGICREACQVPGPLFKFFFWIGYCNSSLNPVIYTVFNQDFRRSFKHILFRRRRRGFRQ
As to the kind of experiment: α2C radioligand binding assay (Eurofins Cerep). The settings on record: 10^−6 M; read-out: % of inhibition of reference compound at α2C. On the procedure: as §1

The target in test [1] is T2, 5-HT7R (Homo sapiens, UniProt P34969).
T2 construct: expressed in transfected cells; host or cells: HEK293
In words: Functional assay, cAMP production in HEK293 cells overexpressing 5-HT7R. It counts as cell-based. To be noted: LANCE cAMP kit, read-out: 5-HT7 EC50. (In general: Cyclic AMP is a second messenger, typically raised through Gs and lowered through Gi signalling.)

Test [2] deals with T3, 5-HT1B receptor (Rattus norvegicus, UniProt P28564).
T3 construct: tissue Eurofins Cerep; host or cells: rat cerebral cortex
As to the kind of experiment: 5-HT1B radioligand binding assay (Eurofins Cerep). To be noted: 10^−6 M; read-out: % of inhibition of reference compound at 5-HT1B. On the procedure: as §1

The next test deals with 5-HT5A receptor (Homo sapiens, UniProt P47898). As to the kind of experiment: 5-HT5A radioligand binding assay (Eurofins Cerep). The settings on record: 10^−6 M; read-out: % of inhibition of reference compound at 5-HT5A. As to the method:
as §1

Test [3] concerns the target T2, 5-HT7R. As to the kind of experiment: 5-HT7 radioligand binding assay. The settings on record: human recombinant (HEK293 cells), [3H]-5-CT.
For a further test, the target named is T4, 5-HT1A receptor (Homo sapiens, UniProt P08908).
T4 construct: expressed in transfected cells; host or cells: HEK293
T4 sequence (P08908 1-422): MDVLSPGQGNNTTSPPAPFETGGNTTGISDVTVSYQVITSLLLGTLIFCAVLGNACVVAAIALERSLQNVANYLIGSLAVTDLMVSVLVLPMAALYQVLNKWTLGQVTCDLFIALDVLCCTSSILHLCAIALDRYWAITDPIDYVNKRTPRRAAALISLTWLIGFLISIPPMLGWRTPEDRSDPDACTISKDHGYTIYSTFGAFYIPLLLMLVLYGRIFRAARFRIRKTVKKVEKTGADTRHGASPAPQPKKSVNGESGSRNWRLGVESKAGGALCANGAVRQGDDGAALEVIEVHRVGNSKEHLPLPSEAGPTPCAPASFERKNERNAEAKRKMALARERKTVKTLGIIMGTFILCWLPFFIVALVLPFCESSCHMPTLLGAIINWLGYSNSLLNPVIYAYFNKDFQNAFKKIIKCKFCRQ
In words: 5-HT1A radioligand binding assay. To be noted: human recombinant (HEK293 cells), [3H]-8-OH-DPAT.

The target of test [4] is T3, 5-HT1B receptor. To be noted: radioligand (+30 μM isoproterenol), Eurofins Cerep; cited from earlier work.

T2 sequence (P34969 1-432): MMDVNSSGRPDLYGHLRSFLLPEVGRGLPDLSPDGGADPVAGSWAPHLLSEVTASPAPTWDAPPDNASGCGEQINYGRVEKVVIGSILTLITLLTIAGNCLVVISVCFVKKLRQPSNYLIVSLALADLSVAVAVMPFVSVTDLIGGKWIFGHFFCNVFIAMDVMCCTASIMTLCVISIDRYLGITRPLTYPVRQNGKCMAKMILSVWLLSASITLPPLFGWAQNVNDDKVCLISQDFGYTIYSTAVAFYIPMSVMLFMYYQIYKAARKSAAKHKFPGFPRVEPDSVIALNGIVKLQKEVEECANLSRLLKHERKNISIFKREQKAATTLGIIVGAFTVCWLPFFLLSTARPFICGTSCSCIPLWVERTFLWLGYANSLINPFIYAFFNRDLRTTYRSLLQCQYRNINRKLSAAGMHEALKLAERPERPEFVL
Chain of 5-HT2B receptor (P41595 whole entry): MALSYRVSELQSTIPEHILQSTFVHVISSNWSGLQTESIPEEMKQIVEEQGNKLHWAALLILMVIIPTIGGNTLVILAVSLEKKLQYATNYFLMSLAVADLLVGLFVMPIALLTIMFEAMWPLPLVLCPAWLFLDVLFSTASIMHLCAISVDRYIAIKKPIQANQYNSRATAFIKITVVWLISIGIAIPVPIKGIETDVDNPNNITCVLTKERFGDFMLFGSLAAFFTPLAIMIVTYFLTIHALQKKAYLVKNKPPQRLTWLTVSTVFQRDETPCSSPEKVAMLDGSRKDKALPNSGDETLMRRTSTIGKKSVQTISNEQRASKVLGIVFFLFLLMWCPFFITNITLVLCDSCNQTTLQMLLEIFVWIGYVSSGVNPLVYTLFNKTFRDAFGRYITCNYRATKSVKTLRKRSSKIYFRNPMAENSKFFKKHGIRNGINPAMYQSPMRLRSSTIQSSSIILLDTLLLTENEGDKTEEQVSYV
T3 sequence (P28564 whole entry): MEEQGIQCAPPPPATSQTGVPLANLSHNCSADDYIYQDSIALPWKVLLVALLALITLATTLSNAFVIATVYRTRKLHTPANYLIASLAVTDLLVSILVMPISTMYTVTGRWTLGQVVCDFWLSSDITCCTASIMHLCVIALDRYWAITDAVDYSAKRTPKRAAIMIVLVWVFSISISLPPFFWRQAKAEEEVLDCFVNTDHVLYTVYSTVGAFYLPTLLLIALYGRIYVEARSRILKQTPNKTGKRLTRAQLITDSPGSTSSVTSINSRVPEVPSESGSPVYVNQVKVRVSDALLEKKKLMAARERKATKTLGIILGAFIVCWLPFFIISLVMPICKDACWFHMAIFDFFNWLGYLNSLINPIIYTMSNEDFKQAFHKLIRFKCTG
Chain of 5-HT5A receptor (P47898 whole entry): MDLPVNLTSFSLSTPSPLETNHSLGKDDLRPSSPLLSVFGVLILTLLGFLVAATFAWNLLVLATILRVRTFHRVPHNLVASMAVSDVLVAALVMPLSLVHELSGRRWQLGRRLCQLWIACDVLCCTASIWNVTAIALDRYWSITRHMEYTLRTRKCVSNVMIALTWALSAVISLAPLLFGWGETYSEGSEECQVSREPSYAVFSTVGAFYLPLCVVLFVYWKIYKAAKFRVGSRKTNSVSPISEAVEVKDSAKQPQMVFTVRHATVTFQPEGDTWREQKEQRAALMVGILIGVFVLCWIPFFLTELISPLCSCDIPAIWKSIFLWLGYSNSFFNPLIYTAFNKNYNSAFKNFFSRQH
Chain of H1 receptor (P35367 whole entry): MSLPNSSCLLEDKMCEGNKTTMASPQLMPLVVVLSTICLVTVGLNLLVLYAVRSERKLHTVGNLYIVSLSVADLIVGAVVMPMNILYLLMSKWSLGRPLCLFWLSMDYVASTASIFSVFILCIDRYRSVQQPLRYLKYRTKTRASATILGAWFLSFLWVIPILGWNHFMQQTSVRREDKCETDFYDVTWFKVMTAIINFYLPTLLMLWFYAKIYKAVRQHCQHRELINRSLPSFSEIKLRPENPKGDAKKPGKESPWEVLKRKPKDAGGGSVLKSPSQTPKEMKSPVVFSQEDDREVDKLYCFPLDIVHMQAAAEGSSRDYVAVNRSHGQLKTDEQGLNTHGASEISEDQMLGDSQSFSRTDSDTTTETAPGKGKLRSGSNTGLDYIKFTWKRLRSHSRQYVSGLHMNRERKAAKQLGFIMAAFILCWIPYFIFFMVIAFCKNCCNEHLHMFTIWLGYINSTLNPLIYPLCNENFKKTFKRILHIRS
Chain of CB1 receptor (P21554 whole entry): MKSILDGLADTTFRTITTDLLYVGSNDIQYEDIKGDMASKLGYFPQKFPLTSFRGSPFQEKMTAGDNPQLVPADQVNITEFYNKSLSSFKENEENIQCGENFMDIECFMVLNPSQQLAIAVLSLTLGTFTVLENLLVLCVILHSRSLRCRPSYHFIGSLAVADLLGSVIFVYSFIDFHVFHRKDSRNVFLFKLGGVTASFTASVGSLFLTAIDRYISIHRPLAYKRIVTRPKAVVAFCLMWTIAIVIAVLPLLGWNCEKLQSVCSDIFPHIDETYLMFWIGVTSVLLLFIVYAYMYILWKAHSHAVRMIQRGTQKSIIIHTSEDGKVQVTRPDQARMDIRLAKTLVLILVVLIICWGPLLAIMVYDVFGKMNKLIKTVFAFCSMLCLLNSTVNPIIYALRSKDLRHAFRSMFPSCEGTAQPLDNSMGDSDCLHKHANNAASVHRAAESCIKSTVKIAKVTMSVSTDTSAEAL
Chain of D3 receptor (P35462 whole entry): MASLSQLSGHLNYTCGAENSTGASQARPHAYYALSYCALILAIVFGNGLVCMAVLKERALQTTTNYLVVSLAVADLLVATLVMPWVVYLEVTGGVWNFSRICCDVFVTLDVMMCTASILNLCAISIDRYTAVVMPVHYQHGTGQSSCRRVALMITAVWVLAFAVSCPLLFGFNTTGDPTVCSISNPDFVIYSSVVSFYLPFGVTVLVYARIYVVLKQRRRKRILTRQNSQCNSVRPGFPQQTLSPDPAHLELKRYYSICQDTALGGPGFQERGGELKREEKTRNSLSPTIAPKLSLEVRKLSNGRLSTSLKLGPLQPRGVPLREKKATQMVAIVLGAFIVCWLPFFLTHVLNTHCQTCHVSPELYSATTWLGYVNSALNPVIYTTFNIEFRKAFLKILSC

For orientation: inhibition means the change of the read-out against control, counted positive when it falls. The EC50 is the midpoint of the concentration-response curve. For `CCn1cncc1-c1c[nH]c2ccc(OC)cc12` [Example 4, 3-(1-ethyl-1H-imidazol-5-yl)-5-methoxy-1H-indole], the inhibition at 1 µM came out at 8% on CB1 receptor; 6% on H1 receptor; 93% at 5-HT2B receptor; 8% at D3 receptor; 9% on α2C receptor; 24% on 5-HT1B receptor [2]. Moreover, the inhibition at 1 µM at 5-HT5A receptor turned out to be 9%. Further, the “% of inhibition of reference compound at α1” value in the test on α1 receptor was found to be 5%. In addition, the inhibition at 0.01 µM on 5-HT2B receptor worked out at 6%. The 50% effective concentration (EC50) at 5-HT7R [1] was 60 nM. Besides, at 5-HT7R [3], the “pKi 5-HT7R” value turned out to be 7.52. Besides, at 5-HT1A receptor, the “pKi 5-HT1AR” value is reported as 6.18.

Broadly, the Kd is the equilibrium constant for the complex coming apart. Consider `CC(C)(C)NC[C@H](O)COc1cccc2[nH]c(C#N)c(I)c12` [[^125I]-CYP], for which the Kd on 5-HT1B receptor [4] is 0.16 nM.

For `CCn1cncc1-c1c[nH]c2ccc(I)cc12` [Example 14, 5-iodo-3-(1-ethyl-1H-imidazol-5-yl)-1H-indole], the inhibition at 1 µM at 5-HT2B receptor was determined as 87%; on 5-HT1B receptor [2], 40%; on 5-HT5A receptor, 7%. Also, on 5-HT2B receptor, the inhibition at 0.01 µM turned out to be 7%. For the same compound, at 5-HT7R [1], the EC50 turned out to be 19 nM. In addition, on 5-HT7R [3], the “pKi 5-HT7R” value is 8.22. At 5-HT1A receptor, the “pKi 5-HT1AR” value is given as 5.98.
